Data: US8916604B2, “Compositions and methods for epigenetic modification of nucleic acid sequences” (Rutgers, The State University of New Jersey, priority 2011, dated 2014)
Read-outs that look alike come from different tables or passages of the source.

Experiments:
[1] = Overall health and toxicity of TRAMP mice on DIM diet; format: in vivo
Procedure: DIM was obtained from Sigma-Aldrich (St. Louis, Mo., U.S.A.). MN-76A diets containing 1% DIM were prepared by Research Diets Inc. (New Brunswick, N.J., U.S.A.) and stored at −20° C. The dose was chosen based in part on studies reported previously Anderton et al., Drug Metab Dispos. 2004; 32: 632-8; and Xue et al., J Nutr Biochem. 2008; 19: 336-44). In our present study, 1% DIM was well-tolerated with these TRAMP mice. The control TRAMP males (n=19) received A1N-76A diets throughout the experiment while the treated TRAMP males received 1% DIM diet starting from eight weeks of age (n=9) as Group 1 (D-G1) and Group 2 (D-G2) starting from twelve weeks of age (n=8) (FIG. 12A). Fresh diets were added to the cages twice weekly.
TRAMP males were weighed weekly and the overall health of the animals was monitored on a regular basis. All mice were sacrificed at the age of 24 weeks by carbon dioxide euthanasia and the genitourinary apparatus (GU) consisting of the seminal vesicles, prostate, and bladder were isolated for further analyses (FIG. 12B).
The overall health of all the mice was monitored during the study period and found to be in good health. All mice were weighed and checked weekly during the course of this study.

DNMT3b = assay: Western blot in TRAMP C1 cells; format: cell-based, mouse
Procedure: (§1) The DIM used in the study contains approximately 98% of DIM purchased from Sigma-Aldrich t St. Louis, Mo., USA), TRAMP C1 cells (provided by Dr. Barbara Foster, Department of Pharmacology and Therapeutics, Roswell Park Cancer institute, Buffalo. NY), originally derived from TRAMP prostate tumor, were cultured in Dulbecco's Modified Eagle's Medium (Invitrogen Corp., Carlsbad, Calif. U.S.A.) supplemented with 10% (V/V) fetal bovine serum (FBS) (Invitrogen Corp., Grand Island, N.Y., U.S.A.), penicillin 100 U/ml, and streptomycin 100 μg/ml (Invitrogen Corp., Grand Island, N.Y., U.S.A.), Cells were maintained in a humidified incubator with 5% CO2 at 37° C. Cells were seeded in 10 cm plates for 24 h and then treated with 0.1% DMSO (control) or different concentrations of DIM in 1% FBS containing medium for 5 days. The medium was changed every 2 days (20), The TRAMP C1 cells or dorso-lateral prostate tissues collected from treated and control groups were pooled and homogenized with RIPA buffer (Cell Signaling Technology, Danvers, Mass., U.S.A.) and 10 μg/ml protease inhibitor cocktail (EMD Chemicals, Philadelphia, Pa., U.S.A.). Protein (20 μg) was loaded onto 4-15% SDS-PAGE (Bio-Rad Laboratories, Hercules, Calif., U.S.A.). After separation by SDS-PAGE, the protein was transferred onto nitrocellulose membrane (Millipore Corp., Billerica, Mass., U.S.A.), and then was blocked in 5% bovine serum albumin (BSA) (Fisher Scientific, Fair Law, J. U.S.A.) in tris buffer saline tween-20 (TBST) solution for 1 h. Membranes were probed using the different mono- or polyclonal-antibodies (1:1000) overnight at 4″C. Blots were washed with TBST solution for 15 min 4 times and incubated with the respective secondary antibodies for 1 hr. After washing min 4 times with TBST solution, the immunoreactive bands were determined by adding SuperSignal West Femto mix (1:1 mix of stable peroxide buffer and luminol/enhancer solution (Thermo Scientific, Rockford, Ill., U.S.A.) to detect immunoreactive bands. The bands were visualized and quantified by BioRad ChemiDoc XRS system (Hercules, Calif., U.S.A.). The primary antibodies used were β-actin, Nrf2, NQO1 (Santa Cruz Biotechnology, Santa Cruz, Calif., U.S.A.), HDAC1, HDAC2, HDAC3, HDAC4 (Cell Signaling Technology Inc., Danvers Mass., U.S.A.), HDAC8 (Proteintech Group Inc., Chicago, Ill., U.S.A.) and DNMT1, DNMT3a, DNMT3b (Imgenex, San Diego, Calif., U.S.A.). The secondary antibodies used were goat polyclonal IgG for β-actin and NQO1, rabbit polyclonal IgG for Nrf2, HDAC1, HDAC2, HDAC3, HDAC4 and HDAC8, and mouse polyclonal IgG for DNMT1, DNMT3a, DNMT3b (Santa Cruz Biotechnology, Santa Cruz, Calif., U.S.A.),

DNMT1 = assay: Western blot in TRAMP C1 cells; format: cell-based, mouse
Procedure: as §1

Nrf2 = assay: Western blot in TRAMP C1 cells; format: cell-based, mouse
Procedure: as §1

HDAC3 = assay: Western blot in TRAMP C1 cells; format: cell-based, mouse
Procedure: as §1

NQO1 = assay: Western blot in TRAMP C1 cells; format: cell-based, mouse
Procedure: as §1

HDAC2 = assay: Western blot in TRAMP C1 cells; format: cell-based, mouse
Procedure: as §1

[2] = test system: apoptotic cells in the dorso-lateral prostates; assay: IHC staining of TRAMP prostate tissue, apoptosis (TUNEL); format: in vivo, mouse; details: D-G1 and D-G2 vs control, p<0.001
Procedure: Sections (4 μm) were cut from the paraffin embedded prostate tissue and mounted on glass slides. The slides Were deparafinized in xylene and antigen unmasking was performed by applying proteinase K digestion directly on the slides for 15 min. Endogenous peroxidase was blocked by incubating in 3% […] for 5 min, and ApopTag Plus Peroxidase In Situ Apoptosis Detection Kit (Millipore, Temecula, Calif., U.S.A.) was used to detect apoptotic cells. For detection of proliferative cells, monoclonal mouse anti-proliferating cell nuclear antigen (PCNA) antibody (Clone PC10, 1:50, Dako North America, Carpinteria, Calif., U.S.A.) was used (12). The staining was performed following as the manufacturer's protocols. Anti-5-methylcytosine (5-MC) mouse monoclone antibody (Clone 162 33 D3, 1:50, EMD Chemicals, Philadelphia, Pa., U.S.A.) was used to detect genome-wide methylated DNA. […] Quantitation of IHC staining was done using the Aperio ScanScope® GL system according to the manufactures protocol (Aperio Technologies Inc., Vista, Calif., U.S.A.). […] The Aperio ImageScopoe software (v 10.1.3.2028) allowed the unbiased quantification and quantitative analysis of the IHC staining of biomarkers of prostate tumor samples obtained from untreated control versus the treated TRAMP mice.

[3] = oral, 2 mg/kg/day; cited from earlier work

## c1ccc2c(Cc3c[nH]c4ccccc34)c[nH]c2c1 [DIM, 3,3′-diindolylmethane]
[1]; 1% DIM diet, at sacrifice
  weights of liver, kidney and spleen: no significant change
[1]; 1% DIM diet, throughout the study period
  body weights: No significant change
[1]; mouse, in vivo
  signs of toxicity: no specific observable sign of toxicity
  tolerability: well-tolerated
DNMT3b
  DNMT3b protein level: suppressed
DNMT1
  DNMT1 protein level: suppressed
Nrf2
  Nrf2 protein levels: significantly induced
HDAC3
  HDAC3 protein expression: suppress
NQO1
  NQO1 protein levels: significantly induced
HDAC2
  HDAC2 protein expression: suppress
[2]
  percent of apoptotic cells: significantly higher
[3]
  tolerability: well tolerated with no significant toxicity
